In patent US9815796B2 (Merck Sharp & Dohme Corp., priority 2013, dated 2017):
Where two headings read alike, the source gives them in different places.

Experiments:
Rhesus PDE2A3 = Rhesus PDE2A3 (Macaca mulatta, UniProt B3VTJ2); experiment: PDE2 fluorescence polarization (IMAP FP) inhibition assay, rhesus enzyme; assay type: biochemical, rhesus macaque
Method in brief: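 IMAP FP (mP from parallel and perpendicular fluorescence against substrate-only control) was read ≥1 h after adding binding reagent. The preceding 60 min room-temperature reaction contained FAM-cAMP (50 nM) and cGMP (1 uM) in pH 7.2 Tris buffer with MgCl2 and DTT. Enzyme was supernatant of sonicated AD293 cells expressing rhesus PDE2A3; compounds were 3-fold titrated, DMSO 1% final.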

human PDE2A1 = human PDE2A1 (Homo sapiens (Human), UniProt O00408); experiment: IMAP FP PDE selectivity panel, human PDE2A1; assay type: biochemical
Method in brief: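 IMAP FP format: substrate 50 nM FAM-cAMP plus 1000 nM cGMP, enzyme (insect-cell GST-tagged human PDE2A1) at ~20% conversion, 60 min reaction at room temperature. Apparent inhibition constants calculated from parallel/perpendicular fluorescence with KM 10,000 nM.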

[1] = Rhesus PDE2, Lab A, read-out: Rhesus PDE2 Ki (nM) - Lab A
[2] = Human PDE2, Lab A, read-out: Human PDE2 Ki (nM) - Lab A
[3] = Rhesus PDE2, Lab B, read-out: Rhesus PDE2 Ki (nM) - Lab B
[4] = Human PDE2, Lab B, read-out: Human PDE2 Ki (nM) - Lab B

Rhesus PDE2A3, sequence (B3VTJ2 1-941): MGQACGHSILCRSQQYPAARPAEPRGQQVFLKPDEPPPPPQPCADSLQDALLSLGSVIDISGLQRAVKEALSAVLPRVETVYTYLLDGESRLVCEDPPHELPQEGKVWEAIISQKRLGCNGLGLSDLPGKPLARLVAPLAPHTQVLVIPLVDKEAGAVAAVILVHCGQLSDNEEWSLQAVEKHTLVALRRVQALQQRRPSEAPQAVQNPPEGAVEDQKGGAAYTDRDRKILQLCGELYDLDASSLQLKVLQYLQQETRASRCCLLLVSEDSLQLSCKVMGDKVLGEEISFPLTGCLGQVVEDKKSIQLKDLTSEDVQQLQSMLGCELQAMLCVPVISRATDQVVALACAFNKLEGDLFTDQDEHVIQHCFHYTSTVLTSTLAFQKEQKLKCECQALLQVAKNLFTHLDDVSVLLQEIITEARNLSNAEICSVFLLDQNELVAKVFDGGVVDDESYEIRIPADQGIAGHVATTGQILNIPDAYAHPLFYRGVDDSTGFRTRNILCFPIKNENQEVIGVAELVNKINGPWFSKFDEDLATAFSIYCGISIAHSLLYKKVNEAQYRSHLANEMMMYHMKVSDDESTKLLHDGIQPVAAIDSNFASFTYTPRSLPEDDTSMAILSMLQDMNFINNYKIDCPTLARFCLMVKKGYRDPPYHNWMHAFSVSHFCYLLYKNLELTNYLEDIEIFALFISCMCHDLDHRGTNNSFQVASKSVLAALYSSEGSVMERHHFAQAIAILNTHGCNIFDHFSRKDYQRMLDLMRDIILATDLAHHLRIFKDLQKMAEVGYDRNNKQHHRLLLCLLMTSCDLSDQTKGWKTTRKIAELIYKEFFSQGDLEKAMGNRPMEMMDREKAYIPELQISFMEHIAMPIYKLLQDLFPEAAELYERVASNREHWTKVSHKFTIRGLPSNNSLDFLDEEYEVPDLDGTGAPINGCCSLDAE
human PDE2A1, sequence (O00408 other isoform, or with tags, fused parts or gaps): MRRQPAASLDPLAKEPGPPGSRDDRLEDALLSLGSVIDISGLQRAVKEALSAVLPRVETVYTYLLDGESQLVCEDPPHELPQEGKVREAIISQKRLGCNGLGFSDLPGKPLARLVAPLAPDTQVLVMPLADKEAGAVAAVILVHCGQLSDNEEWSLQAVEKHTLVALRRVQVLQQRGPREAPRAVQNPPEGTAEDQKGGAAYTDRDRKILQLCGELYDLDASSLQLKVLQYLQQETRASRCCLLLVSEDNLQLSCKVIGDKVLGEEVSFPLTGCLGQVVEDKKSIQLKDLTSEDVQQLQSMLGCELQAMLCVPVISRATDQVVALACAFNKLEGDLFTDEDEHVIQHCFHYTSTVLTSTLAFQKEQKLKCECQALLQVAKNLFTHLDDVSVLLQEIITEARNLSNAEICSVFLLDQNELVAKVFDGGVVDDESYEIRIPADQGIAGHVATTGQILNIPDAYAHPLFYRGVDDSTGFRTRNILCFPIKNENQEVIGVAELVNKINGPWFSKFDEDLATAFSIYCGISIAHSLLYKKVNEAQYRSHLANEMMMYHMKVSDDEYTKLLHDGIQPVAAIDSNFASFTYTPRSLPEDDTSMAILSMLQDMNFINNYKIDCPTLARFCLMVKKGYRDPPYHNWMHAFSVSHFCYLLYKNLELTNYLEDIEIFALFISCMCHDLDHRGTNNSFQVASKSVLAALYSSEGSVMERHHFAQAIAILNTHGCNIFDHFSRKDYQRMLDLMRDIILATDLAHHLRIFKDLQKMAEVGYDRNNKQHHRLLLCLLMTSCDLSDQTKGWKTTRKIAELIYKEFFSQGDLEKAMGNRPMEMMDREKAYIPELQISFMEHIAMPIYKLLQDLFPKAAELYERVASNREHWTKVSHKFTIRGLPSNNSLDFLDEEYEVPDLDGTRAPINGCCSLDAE

CC[C@@H](NC(=O)c1cc(=O)[nH]c(-c2ccccc2)n1)c1ccc(SC(F)(F)F)cc1 [Example 151, 6-oxo-2-phenyl-N-[(1R)-1-{4-[(trifluoromethyl)sulfanyl]phenyl}propyl]-1,6-dihydropyrimidine-4-carboxamide]
Ki (Rhesus PDE2A3; [1]): 3.3 nM
Ki (human PDE2A1; [2]): 3.2 nM

CC(C)c1ccc([C@@H](C)NC(=O)c2cc(=O)[nH]c(-c3ccccc3)n2)cc1 [Example 146, N-{(1R)-1-[4-(1-methylethyl)phenyl]ethyl}-6-oxo-2-phenyl-1,6-dihydropyrimidine-4-carboxamide]
Ki (Rhesus PDE2A3; [1]): 9.3 nM
Ki (human PDE2A1; [2]): 7.1 nM

COc1ccc(Cc2nc(C(=O)N[C@@H](c3ccc(C(F)(F)F)cc3)C(C)C)cc(=O)[nH]2)cc1 [Example 474, 2-(4-methoxybenzyl)-N-{(1R)-2-methyl-1-[4-(trifluoromethyl)phenyl]propyl}-6-oxo-1,6-dihydropyrimidine-4-carboxamide]
Ki (Rhesus PDE2A3; [3]): 1.4 nM
Ki (human PDE2A1; [4]): 1.5 nM

C[C@@H](NC(=O)c1cc(=O)[nH]c(C2CC2)n1)c1cc(F)c(C(F)(F)F)cc1F [Example 440, 2-cyclopropyl-N-{(1R)-1-[2,5-difluoro-4-(trifluoromethyl)phenyl]ethyl}-6-oxo-1,6-dihydropyrimidine-4-carboxamide]
Ki (Rhesus PDE2A3; [3]): 51 nM
Ki (human PDE2A1; [4]): 60 nM

O=C(N[C@@H](c1ccc(SC(F)(F)F)cc1)C1CC1)c1cc(=O)[nH]c(-c2ncccn2)n1 [Example 95, N-[(R)-cyclopropyl{4-[(trifluoromethyl)sulfanyl]phenyl}methyl]-6-oxo-1,6-dihydro-2,2′-bipyrimidine-4-carboxamide]
Ki (Rhesus PDE2A3; [1]): 7.4 nM
Ki (human PDE2A1; [2]): 3.1 nM

CC(C)(NC(=O)c1cc(=O)[nH]c(-c2ccccc2)n1)c1ccc(OC(F)(F)F)c(F)c1 [Example 161, N-{1-[3-fluoro-4-(trifluoromethoxy)phenyl]-1-methylethyl}-6-oxo-2-phenyl-1,6-dihydropyrimidine-4-carboxamide]
Ki (Rhesus PDE2A3; [1]): 88 nM
Ki (human PDE2A1; [2]): 60 nM

CC(C)(C)[C@@H](NC(=O)c1cc(=O)[nH]c(C2CC2)n1)c1ccc(C(F)(F)F)c(F)c1 [Example 438, 2-cyclopropyl-N-{(1R)-1-[3-fluoro-4-(trifluoromethyl)phenyl]-2,2-dimethylpropyl}-6-oxo-1,6-dihydropyrimidine-4-carboxamide]
Ki (Rhesus PDE2A3; [3]): 1.5 nM
Ki (human PDE2A1; [4]): 1.3 nM

CC(C)(C)[C@@H](NC(=O)c1cc(=O)[nH]c(C2CC2)n1)c1ccc(CC(F)(F)F)cc1 [Example 441, 2-cyclopropyl-N-{(1R)-2,2-dimethyl-1-[4-(2,2,2-trifluoroethyl)phenyl]propyl}-6-oxo-1,6-dihydropyrimidine-4-carboxamide]
Ki (Rhesus PDE2A3; [3]): 3.8 nM
Ki (human PDE2A1; [4]): 6.4 nM

O=C(NC1(c2ccc(SC(F)(F)F)c(F)c2)CC1)c1cc(=O)[nH]c(C2CC2)n1 [Example 252, 2-cyclopropyl-N-(1-{3-fluoro-4-[(trifluoromethyl)sulfanyl]phenyl}cyclopropyl)-6-oxo-1,6-dihydropyrimidine-4-carboxamide]
Ki (Rhesus PDE2A3; [1]): 8.7 nM
Ki (Rhesus PDE2A3; [3]): 14 nM
Ki (human PDE2A1; [2]): ~13 nM
Ki (human PDE2A1; [4]): 20 nM

CC1(C(NC(=O)c2cc(=O)[nH]c(C3CC3)n2)c2ccc(SC(F)(F)F)c(F)c2)CC1 (single isomer, unassigned) [Example 704, (R)- or (S)-2-cyclopropyl-N-((3 fluoro-4-((trifluorormethyl)thio)phenyl)(1-methylcyclopropyl)methyl)-6-oxo-1,6-dihydropyrimidine-4-carboxamide]
Ki (Rhesus PDE2A3; [3]): 4.7 nM
Ki (human PDE2A1; [4]): 3.6 nM

Cc1nc(C(=O)N[C@H](C)c2cc(F)c(C(F)(F)F)c(F)c2)cc(=O)[nH]1 [Example 26, N-{(1R)-[3,5-difluoro-4-(trifluoromethyl)phenyl]ethyl}-2-methyl-6-oxo-1,6-dihydropyrimidine-4-carboxamide]
Ki (Rhesus PDE2A3; [1]): 231 nM
Ki (human PDE2A1; [2]): 104 nM

Cc1nc(C(=O)NC2(c3ccc(OC(F)(F)F)cc3)CCC2)cc(=O)[nH]1 [Example 269]
Ki (Rhesus PDE2A3; [1]): 158 nM
Ki (human PDE2A1; [2]): 118 nM
Ki (human PDE2A1; [4]): 96 nM

Cc1cc([C@@H](C)NC(=O)c2cc(=O)[nH]c(-c3ccccc3)n2)ccc1C(F)(F)F [Example 189]
Ki (Rhesus PDE2A3; [1]): 10 nM
Ki (human PDE2A1; [2]): 9.7 nM

CC[C@@H](NC(=O)c1cc(=O)[nH]c(-c2ncccn2)n1)c1ccc(OC(F)(F)F)c(F)c1 [Example 89, N-{(1R)-1-[3-fluoro-4-(trifluoromethoxy)phenyl]propyl}-6-oxo-1,6-dihydro-2,2′-bipyrimidine-4-carboxamide]
Ki (Rhesus PDE2A3; [1]): 6.4 nM
Ki (Rhesus PDE2A3; [3]): 9.3 nM
Ki (human PDE2A1; [4]): 9.8 nM

O=C(N[C@@H](c1ccc(OC(F)(F)F)cc1)C1CC1)c1cc(=O)[nH]c(-c2ncccn2)n1 [Example 92, N-{(R)-cyclopropyl[4-(trifluoromethoxy)phenyl]methyl}-6-oxo-1,6-dihydro-2,2′-bipyrimidine-4-carboxamide]
Ki (Rhesus PDE2A3; [1]): 91 nM
Ki (human PDE2A1; [2]): 21 nM

Cc1nc(C(=O)NC(c2ccc(C(F)(F)F)cc2)c2nnn[nH]2)cc(=O)[nH]1 (stereo not shown) [Example 336, 2-Methyl-6-oxo-N-{1H-tetrazol-5-yl[4-(trifluoromethyl)phenyl]methyl}-1,6-dihydropyrimidine-4-carboxamide]
Ki (Rhesus PDE2A3; [1]): 60 nM
Ki (human PDE2A1; [2]): 59 nM

Cc1nc(C(=O)NC(C)(C)c2ccc(C(F)(F)F)cc2Cl)cc(=O)[nH]1 [Example 593, N-{1-[2-chloro-4-(trifluoromethyl)phenyl]-1-methylethyl}-2-methyl-6-oxo-1,6-dihydropyrimidine-4-carboxamide]
Ki (Rhesus PDE2A3; [3]): 11 nM
Ki (human PDE2A1; [4]): 10 nM

O=C(N[C@@H](c1ccc(OC(F)(F)F)c(F)c1)C1CC1)c1cc(=O)[nH]c(-c2ccccc2)n1 [Example 176]
Ki (Rhesus PDE2A3; [1]): 4.8 nM
Ki (human PDE2A1; [2]): 3.9 nM

C[C@@H](NC(=O)c1cc(=O)[nH]c(C2CC2)n1)c1cc(F)c(C(F)(F)F)c(F)c1 [Example 218, 2-cyclopropyl-N-{(1R)-1-[3,5-difluoro-4-(trifluoromethyl)phenyl]ethyl}-6-oxo-1,6-dihydropyrimidine-4-carboxamide]
Ki (Rhesus PDE2A3; [1]): 104 nM
Ki (human PDE2A1; [2]): 56 nM

O=C(NCc1ccc(C2CC2)cc1)c1cc(=O)[nH]c(-c2ccccc2)n1 [Example 182, N-(4-cyclopropylbenzyl)-6-oxo-2-phenyl-1,6-dihydropyrimidine-4-carboxamide]
Ki (Rhesus PDE2A3; [1]): 141 nM
Ki (human PDE2A1; [2]): 118 nM

CC1(C(NC(=O)c2cc(=O)[nH]c(-c3ccccc3)n2)c2ccc(SC(F)(F)F)c(F)c2)CC1 (single isomer, unassigned) [Example 707, (R)- or (S)-N-((3-fluoro-4-((trifluoromethyl)thio)phenyl)(1-methylcyclopropyl)methyl)-6-oxo-2-phenyl-1,6-dihydropyrimidine-4-carboxamide]
Ki (Rhesus PDE2A3; [3]): 8.3 nM
Ki (human PDE2A1; [4]): 7.7 nM

O=C(N[C@@H](c1ccc(SC(F)(F)F)c(F)c1)C1CC1)c1cc(=O)[nH]c(-c2ncccn2)n1 [Example 452, N-[(R)-cyclopropyl{3-fluoro-4-[(trifluoromethyl)sulfanyl]phenyl}meth-yl]-6-oxo-1,6-dihydro-2,2′-bipyrimidine-4-carboxamide]
Ki (Rhesus PDE2A3; [3]): 9.8 nM
Ki (human PDE2A1; [4]): 9.3 nM

Cc1nc(C(=O)NC(C)c2ccc3cc[nH]c3c2)cc(=O)[nH]1 (stereo not shown) [Example 303, N-(1-(1H-indol-6-yl)ethyl)-2-methyl-6-oxo-1,6-dihydropyrimidine-4-carboxamide]
Ki (Rhesus PDE2A3; [1]): 208 nM
Ki (human PDE2A1; [2]): 215 nM

COc1ccc(Cc2nc(C(=O)N[C@@H](c3ccc(SC(F)(F)F)cc3)C3CC3)cc(=O)[nH]2)cc1 [Example 479, N-[(R)-cyclopropyl{4-[(trifluoromethyl)sulfanyl]phenyl}methyl]-2-(4-methoxybenzyl)-6-oxo-1,6-dihydropyrimidine-4-carboxamide]
Ki (Rhesus PDE2A3; [3]): 1.9 nM
Ki (human PDE2A1; [4]): 2 nM

COc1ccc(C(C)(C)c2nc(C(=O)N[C@@H](c3ccc(C(F)(F)F)cc3)C(C)C)cc(=O)[nH]2)cc1 [Example 493, 2-[1-(4-methoxyphenyl)-1-methylethyl]-N-{(1R)-2-methyl-1-[4-(trifluoromethyl)phenyl]propyl}-6-oxo-1,6-dihydropyrimidine-4-carboxamide]
Ki (Rhesus PDE2A3; [3]): 77 nM
Ki (human PDE2A1; [4]): 62 nM

Cc1nc(C(=O)N[C@@H](c2ccc(C3CC3)c(F)c2)C(C)(C)C)cc(=O)[nH]1 [Example 428, N-[(1R)-1-(4-cyclopropyl-3-fluorophenyl)-2,2-dimethylpropyl]-2-methyl-6-oxo-1,6-dihydropyrimidine-4-carboxamide]
Ki (Rhesus PDE2A3; [3]): 1.9 nM
Ki (human PDE2A1; [4]): 1.8 nM

COc1ccc(Cc2nc(C(=O)N[C@H](C)c3ccc(C(F)(F)F)cc3)cc(=O)[nH]2)cc1OC [Example 4, 2-(3,4-dimethoxybenzyl)-6-oxo-N-{(1R)-1-[4-(trifluoromethyl)phenyl]ethyl}-1,6-dihydropyrimidine-4-carboxamide]
Ki (Rhesus PDE2A3; [1]): 0.56 nM
Ki (human PDE2A1; [2]): 0.52 nM

O=C(NC1(c2ccc(C(F)(F)F)cc2)CCC1)c1cc(=O)[nH]c(-c2ccccc2)n1 [Example 278, 6-oxo-2-phenyl-N-{1-[4-(trifluoromethyl)phenyl]cyclobutyl}-1,6-dihydropyrimidine-4-carboxamide]
Ki (Rhesus PDE2A3; [1]): 18 nM
Ki (human PDE2A1; [2]): 12 nM

CC(NC(=O)c1cc(=O)[nH]c(-c2ccccc2)n1)c1ccc(C(F)(F)F)cc1Cl (stereo not shown) [Example 147, N-{1-[2-chloro-4-(trifluoromethyl)phenyl]ethyl}-6-oxo-2-phenyl-1,6-dihydropyrimidine-4-carboxamide]
Ki (Rhesus PDE2A3; [1]): 51 nM
Ki (human PDE2A1; [2]): 35 nM

Cc1nc(C(=O)NC(C(=O)O)c2ccc(C(F)(F)F)cc2)cc(=O)[nH]1 (single isomer, unassigned) [Example 327]
Ki (Rhesus PDE2A3; [1]): 4550 nM
Ki (human PDE2A1; [2]): 8100 nM
